From ChEMBL document CHEMBL5465560, “Selectivity Literature for EUbOPEN Chemogenomic Library” (2024)
Each block holds one compound with its values, some of them ahead of it.

Tests used:
[1] = molecular target: Tyrosine-protein kinase JAK2 (Homo sapiens, UniProt O60674); assay: Selectivity interaction (Kinase panel (Invitrogen)) EUB0000639a JAK2; conditions: at 200 nM
[2] = molecular target: Calcium/calmodulin-dependent protein kinase type II subunit delta (Homo sapiens) (UniProt Q13557); assay: Selectivity interaction (Kinase panel (Invitrogen)) EUB0000639a CAMK2D; conditions: at 200 nM
[3] = molecular target: T1, Tyrosine-protein kinase Tec (Homo sapiens) (UniProt P42680); assay: Selectivity interaction (ActivX KiNativ screen (kinase selectivity in THP-1 cell lysates)) EUB0000639a TEC; type: subcellular; conditions: lysate, at 1 µM
T1 sequence (whole entry): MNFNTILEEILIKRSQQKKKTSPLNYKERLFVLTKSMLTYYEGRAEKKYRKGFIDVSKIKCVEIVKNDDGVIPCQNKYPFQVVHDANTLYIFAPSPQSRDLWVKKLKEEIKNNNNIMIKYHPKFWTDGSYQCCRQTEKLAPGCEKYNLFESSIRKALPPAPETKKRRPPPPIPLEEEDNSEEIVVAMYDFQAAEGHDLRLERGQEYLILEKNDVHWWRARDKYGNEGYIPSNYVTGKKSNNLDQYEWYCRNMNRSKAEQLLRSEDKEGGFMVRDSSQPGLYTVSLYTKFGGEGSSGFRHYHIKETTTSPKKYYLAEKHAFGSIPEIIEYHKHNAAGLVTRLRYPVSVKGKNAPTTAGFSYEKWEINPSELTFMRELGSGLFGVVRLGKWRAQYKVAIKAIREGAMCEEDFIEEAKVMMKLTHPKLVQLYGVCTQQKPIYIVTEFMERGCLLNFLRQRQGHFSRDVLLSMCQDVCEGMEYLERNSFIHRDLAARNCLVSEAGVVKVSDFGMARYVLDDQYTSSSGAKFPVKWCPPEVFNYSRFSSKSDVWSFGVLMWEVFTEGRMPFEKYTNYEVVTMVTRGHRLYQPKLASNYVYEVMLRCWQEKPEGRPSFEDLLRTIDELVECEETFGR

[4] = tested on: Epidermal growth factor receptor (Homo sapiens), P00533 [UNDEFINED MUTATION]; assay: Selectivity interaction (ProQinase) EUB0000171b EGFR; conditions: at 1 µM
[5] = molecular target: T2, Non-receptor tyrosine-protein kinase TNK1 (Homo sapiens) (UniProt Q13470); assay: Selectivity interaction (KinomeScan (DiscoverX)) EUB0000045b TNK1
T2 sequence (whole entry): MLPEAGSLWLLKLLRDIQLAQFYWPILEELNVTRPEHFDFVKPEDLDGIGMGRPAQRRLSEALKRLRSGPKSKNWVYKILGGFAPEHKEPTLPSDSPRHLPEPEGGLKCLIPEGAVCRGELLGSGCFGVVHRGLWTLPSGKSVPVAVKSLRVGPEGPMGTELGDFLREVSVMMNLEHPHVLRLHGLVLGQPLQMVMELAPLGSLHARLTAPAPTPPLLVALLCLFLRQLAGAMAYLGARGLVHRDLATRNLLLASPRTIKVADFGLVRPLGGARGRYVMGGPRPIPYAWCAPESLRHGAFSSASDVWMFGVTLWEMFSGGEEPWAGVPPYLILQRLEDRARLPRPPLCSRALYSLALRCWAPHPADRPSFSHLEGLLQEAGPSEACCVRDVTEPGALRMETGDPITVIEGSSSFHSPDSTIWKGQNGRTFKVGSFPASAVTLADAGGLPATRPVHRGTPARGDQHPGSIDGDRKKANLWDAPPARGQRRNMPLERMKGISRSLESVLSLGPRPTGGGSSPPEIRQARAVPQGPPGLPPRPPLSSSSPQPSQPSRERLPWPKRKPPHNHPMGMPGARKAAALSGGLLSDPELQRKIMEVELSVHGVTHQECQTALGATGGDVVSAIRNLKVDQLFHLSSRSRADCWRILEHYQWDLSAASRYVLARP

[6] = molecular target: T3, Serine/threonine-protein kinase TBK1 (Homo sapiens) (UniProt Q9UHD2); assay: Selectivity interaction (KinomeScan (DiscoverX)) EUB0000045b TBK1
T3 sequence (whole entry): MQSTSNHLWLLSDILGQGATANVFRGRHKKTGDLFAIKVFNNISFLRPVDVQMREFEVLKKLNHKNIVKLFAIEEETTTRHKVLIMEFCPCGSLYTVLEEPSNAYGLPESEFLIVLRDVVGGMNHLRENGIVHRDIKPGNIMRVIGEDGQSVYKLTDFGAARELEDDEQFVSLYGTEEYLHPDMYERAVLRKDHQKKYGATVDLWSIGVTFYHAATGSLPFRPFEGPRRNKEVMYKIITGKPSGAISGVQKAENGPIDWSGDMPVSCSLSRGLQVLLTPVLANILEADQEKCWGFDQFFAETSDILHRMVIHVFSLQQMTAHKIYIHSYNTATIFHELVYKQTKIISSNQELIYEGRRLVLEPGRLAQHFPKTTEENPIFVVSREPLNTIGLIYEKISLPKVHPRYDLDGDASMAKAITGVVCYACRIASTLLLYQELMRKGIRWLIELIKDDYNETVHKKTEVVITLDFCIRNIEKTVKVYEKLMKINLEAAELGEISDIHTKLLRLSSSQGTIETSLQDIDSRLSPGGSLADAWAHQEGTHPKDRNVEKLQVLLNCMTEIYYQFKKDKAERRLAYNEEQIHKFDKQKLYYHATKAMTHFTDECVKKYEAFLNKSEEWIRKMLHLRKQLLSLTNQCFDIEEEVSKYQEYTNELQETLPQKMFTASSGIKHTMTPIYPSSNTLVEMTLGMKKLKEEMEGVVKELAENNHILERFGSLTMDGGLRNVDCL

[7] = molecular target: AP2-associated protein kinase 1 (Homo sapiens, UniProt Q2M2I8); assay: Selectivity interaction (Kinase panel (DSF assay)) EUB0001559a AAK1
[8] = molecular target: T4, Serine/threonine-protein kinase NLK (Homo sapiens) (UniProt Q9UBE8); assay: Selectivity interaction (KinomeScan (DiscoverX)) EUB0000666a NLK; conditions: at 10 µM
T4 sequence (whole entry): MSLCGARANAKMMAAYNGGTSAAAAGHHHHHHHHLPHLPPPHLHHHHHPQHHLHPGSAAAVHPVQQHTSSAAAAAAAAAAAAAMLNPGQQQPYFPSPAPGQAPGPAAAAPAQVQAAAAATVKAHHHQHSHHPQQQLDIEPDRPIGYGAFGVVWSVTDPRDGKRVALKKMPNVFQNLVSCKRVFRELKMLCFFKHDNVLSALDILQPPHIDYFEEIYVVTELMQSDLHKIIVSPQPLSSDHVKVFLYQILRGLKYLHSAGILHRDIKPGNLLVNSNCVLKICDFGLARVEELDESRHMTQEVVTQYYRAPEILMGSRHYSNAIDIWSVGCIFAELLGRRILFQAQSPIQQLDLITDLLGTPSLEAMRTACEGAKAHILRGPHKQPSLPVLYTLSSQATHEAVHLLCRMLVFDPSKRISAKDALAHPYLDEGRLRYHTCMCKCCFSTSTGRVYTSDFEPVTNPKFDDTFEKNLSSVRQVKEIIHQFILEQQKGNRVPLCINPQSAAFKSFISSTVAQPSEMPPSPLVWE

Chain of Epidermal growth factor receptor (Homo sapiens), P00533 [UNDEFINED MUTATION] (P00533 whole entry, looked up, change not shown): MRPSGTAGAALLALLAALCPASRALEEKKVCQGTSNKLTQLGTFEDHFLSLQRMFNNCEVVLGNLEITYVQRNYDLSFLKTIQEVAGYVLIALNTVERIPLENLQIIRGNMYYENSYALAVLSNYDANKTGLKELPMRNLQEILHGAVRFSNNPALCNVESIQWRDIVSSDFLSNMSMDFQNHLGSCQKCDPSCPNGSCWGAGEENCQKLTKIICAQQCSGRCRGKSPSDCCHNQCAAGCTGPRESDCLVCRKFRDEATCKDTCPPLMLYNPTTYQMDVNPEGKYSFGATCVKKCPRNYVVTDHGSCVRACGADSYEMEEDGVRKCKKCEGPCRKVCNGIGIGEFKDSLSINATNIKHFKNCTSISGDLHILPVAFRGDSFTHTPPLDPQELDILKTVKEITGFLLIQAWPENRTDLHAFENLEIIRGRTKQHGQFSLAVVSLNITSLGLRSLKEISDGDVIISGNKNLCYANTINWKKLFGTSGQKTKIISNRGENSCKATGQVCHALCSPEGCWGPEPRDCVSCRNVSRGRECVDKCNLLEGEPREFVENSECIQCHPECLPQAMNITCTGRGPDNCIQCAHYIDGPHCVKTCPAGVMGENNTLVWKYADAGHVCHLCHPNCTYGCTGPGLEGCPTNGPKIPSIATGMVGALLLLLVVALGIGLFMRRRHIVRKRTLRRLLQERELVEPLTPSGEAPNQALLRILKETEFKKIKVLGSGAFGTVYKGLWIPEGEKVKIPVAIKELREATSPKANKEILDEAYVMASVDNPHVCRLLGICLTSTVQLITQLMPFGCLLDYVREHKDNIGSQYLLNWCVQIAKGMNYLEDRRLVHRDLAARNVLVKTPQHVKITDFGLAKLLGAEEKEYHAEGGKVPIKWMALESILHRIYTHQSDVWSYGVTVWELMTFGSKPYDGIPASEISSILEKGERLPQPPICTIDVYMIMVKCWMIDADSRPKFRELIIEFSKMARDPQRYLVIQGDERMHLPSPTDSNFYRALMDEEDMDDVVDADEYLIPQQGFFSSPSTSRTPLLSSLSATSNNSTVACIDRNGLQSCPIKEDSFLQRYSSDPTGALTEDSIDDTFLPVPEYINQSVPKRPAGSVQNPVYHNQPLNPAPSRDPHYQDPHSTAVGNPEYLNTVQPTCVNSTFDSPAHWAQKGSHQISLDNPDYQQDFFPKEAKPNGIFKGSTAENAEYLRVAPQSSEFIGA
Chain of Calcium/calmodulin-dependent protein kinase type II subunit delta (Homo sapiens) (Q13557 whole entry): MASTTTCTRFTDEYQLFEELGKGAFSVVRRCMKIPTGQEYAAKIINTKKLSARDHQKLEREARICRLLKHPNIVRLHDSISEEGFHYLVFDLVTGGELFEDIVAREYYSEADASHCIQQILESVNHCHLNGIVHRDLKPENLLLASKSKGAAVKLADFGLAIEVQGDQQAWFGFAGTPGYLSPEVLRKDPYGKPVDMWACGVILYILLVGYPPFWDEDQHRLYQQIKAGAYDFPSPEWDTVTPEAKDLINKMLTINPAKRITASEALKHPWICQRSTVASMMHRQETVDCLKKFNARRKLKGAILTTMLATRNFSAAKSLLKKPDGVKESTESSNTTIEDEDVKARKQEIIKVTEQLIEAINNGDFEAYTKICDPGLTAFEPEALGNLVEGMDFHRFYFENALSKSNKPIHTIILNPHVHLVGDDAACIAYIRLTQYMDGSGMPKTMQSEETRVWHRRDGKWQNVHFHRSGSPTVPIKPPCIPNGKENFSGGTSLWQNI
Chain of AP2-associated protein kinase 1 (Q2M2I8 whole entry, looked up): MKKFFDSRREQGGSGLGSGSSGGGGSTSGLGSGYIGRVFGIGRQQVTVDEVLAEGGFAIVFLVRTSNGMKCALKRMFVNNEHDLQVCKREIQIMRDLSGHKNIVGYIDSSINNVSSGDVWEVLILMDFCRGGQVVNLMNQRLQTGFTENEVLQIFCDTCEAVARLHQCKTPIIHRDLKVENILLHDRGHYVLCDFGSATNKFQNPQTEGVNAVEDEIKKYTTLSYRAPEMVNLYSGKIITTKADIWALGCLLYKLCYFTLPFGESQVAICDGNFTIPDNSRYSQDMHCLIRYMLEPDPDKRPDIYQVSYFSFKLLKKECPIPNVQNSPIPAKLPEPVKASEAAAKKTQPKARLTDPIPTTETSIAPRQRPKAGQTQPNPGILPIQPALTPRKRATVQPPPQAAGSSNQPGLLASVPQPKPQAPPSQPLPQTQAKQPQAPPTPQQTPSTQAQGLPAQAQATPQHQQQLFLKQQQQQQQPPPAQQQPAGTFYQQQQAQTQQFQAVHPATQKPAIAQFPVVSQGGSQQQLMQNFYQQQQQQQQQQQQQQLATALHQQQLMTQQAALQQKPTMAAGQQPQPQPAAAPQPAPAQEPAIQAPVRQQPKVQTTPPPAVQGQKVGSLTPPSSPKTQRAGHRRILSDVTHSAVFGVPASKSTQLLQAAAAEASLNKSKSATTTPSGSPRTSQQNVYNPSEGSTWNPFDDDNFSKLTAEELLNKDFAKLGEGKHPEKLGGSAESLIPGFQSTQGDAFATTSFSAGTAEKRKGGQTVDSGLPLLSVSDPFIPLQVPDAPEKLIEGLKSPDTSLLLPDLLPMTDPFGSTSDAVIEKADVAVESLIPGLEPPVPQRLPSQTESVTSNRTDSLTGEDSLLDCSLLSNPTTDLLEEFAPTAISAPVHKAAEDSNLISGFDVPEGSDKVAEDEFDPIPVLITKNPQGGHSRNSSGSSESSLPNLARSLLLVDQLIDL
Chain of Tyrosine-protein kinase JAK2 (O60674 whole entry): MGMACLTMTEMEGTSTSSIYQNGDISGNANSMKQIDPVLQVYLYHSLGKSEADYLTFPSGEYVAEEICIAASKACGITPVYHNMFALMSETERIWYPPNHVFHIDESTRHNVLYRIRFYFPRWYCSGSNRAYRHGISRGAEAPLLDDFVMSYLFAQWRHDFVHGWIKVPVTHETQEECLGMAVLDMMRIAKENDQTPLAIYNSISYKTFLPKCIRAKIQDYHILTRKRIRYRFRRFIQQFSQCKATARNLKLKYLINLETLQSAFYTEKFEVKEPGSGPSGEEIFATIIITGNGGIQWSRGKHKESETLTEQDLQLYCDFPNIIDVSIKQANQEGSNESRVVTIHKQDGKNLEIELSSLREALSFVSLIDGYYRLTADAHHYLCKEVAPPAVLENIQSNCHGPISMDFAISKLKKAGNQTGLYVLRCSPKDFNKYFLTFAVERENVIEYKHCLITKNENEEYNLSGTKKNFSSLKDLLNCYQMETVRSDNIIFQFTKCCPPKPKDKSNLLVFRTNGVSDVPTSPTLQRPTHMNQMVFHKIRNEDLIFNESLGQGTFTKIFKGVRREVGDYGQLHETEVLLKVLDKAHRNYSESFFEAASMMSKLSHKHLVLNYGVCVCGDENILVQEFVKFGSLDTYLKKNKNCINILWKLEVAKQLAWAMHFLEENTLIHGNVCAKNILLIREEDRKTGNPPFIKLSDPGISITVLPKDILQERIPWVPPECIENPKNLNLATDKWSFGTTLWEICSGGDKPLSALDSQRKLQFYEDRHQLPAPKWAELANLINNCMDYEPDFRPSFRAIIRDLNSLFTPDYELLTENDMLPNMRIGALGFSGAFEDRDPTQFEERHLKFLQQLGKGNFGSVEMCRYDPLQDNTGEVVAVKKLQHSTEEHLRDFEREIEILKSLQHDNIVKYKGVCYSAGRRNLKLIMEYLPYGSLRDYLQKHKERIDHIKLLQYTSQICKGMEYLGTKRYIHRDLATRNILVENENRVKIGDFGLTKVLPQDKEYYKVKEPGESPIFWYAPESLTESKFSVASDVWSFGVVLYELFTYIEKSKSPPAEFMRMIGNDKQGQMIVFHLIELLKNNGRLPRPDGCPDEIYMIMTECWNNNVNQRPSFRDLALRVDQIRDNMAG

% of inhibition [1]: 12.5%
% of inhibition [2]: 24.9%
% of inhibition [3]: -60.5%
SMILES: CC[C@@H]1[C@H](F)C(=O)N[C@@H]1COc1nccc2cc(C(N)=O)c(OC)cc12 [ZIMLOVISERTIB]

% of control [4]: 101%
SMILES: C=CC(=O)Nc1cccc(C(=O)Nc2ccc(Nc3cc(-c4[nH]c(SC)nc4C)ccn3)cc2)c1

SMILES: C=CC(=O)Nc1cc(-n2c(=O)ccc3cnc4ccc(-c5ccc(NS(C)(=O)=O)cc5)cc4c32)ccc1C
% of control ([5]; at 1 µM): 100%
% of control ([5]; at 10 µM): 100%
% of control ([6]; at 1 µM): 100%
% of control ([6]; at 10 µM): 77%

dTM [7]: 0.3 K
SMILES: CN(C(=O)c1cnn2cccnc12)c1cc2c(cc1N1CCOCC1)C(=O)N(C[C@@H](F)C(C)(C)O)C2

SMILES: O=C(NOC[C@H](O)CO)c1ccc(F)c(F)c1Nc1ccc(I)cc1F
% of control [8]: 77%
